# Test results reported in patent US7795290B2 (Genentech, Inc., priority 2004, dated 2010).
# Molecular target: T1, AKT1 (Homo sapiens, UniProt P31749)
# T1 construct: purchased Upstate 14-276
# Experiment: HTS ATP-utilizing enzyme assay, off-chip mobility-shift (Caliper HTS 250)
# Assay type: biochemical
# Conditions: kinase named = inhibitory activity/selectivity; test compound 10 μM; active = greater than three-sigma from mean
# Method in brief: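 AKT1 activity was measured by off-chip mobility shift (Caliper HTS 250) as the ratio of peptide substrate to phosphorylated product. Test compound was at 10 μM, with 2.5 h incubation at 20–22° C. EDTA wells served as 100% control and DMSO wells as 0%. Hits were called at three-sigma limits.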
# T1 sequence (P31749 whole entry): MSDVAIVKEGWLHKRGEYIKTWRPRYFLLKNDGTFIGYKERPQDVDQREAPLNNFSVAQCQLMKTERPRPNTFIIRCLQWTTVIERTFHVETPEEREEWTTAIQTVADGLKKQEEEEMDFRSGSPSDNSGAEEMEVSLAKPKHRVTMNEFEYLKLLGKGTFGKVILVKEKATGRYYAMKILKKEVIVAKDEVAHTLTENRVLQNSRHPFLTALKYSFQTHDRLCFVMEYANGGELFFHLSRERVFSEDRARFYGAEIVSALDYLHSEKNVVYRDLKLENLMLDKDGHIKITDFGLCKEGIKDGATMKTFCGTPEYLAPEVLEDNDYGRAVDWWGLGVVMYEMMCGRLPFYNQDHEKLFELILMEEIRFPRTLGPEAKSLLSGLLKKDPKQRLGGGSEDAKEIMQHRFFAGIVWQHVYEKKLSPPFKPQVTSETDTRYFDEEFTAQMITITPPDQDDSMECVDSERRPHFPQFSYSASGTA
row,Activity,Structure (SMILES)
1,AKT1,"COc1ccc(OC)c(-c2csc(N(CCCN3CCN(C)CC3)C(=O)c3ccccc3)n2)c1 [N-(4-(2,5-dimethoxyphenyl)thiazol-2-yl)-N-(3-(4-methylpiperazin-1-yl)propyl)benzamide]"
2,AKT1,"COc1ccc(OC)c(-c2csc(N(CCCN3CCN(C)CC3)C(=O)c3cccs3)n2)c1 [N-(4-(2,5-dimethoxyphenyl)thiazol-2-yl)-N-(3-(4-methylpiperazin-1-yl)propyl)thiophene-2-carboxamide]"
3,AKT1,"COc1ccc(OC)c(-c2csc(N(CCCN3CCCCC3)C(=O)c3ccccc3)n2)c1 [N-(4-(2,5-dimethoxyphenyl)thiazol-2-yl)-N-(3-(piperidin-1-yl)propyl)benzamide]"
4,AKT1,"COc1ccc(OC)c(-c2csc(N(CCCN3CCCCC3)C(=O)c3ccco3)n2)c1 [N-(4-(2,5-dimethoxyphenyl)thiazol-2-yl)-N-(3-(piperidin-1-yl)propyl)furan-2-carboxamide]"
5,AKT1,"COc1ccc(OC)c(-c2csc(N(CCCN3CCCCC3)C(=O)c3cccs3)n2)c1 [N-(4-(2,5-dimethoxyphenyl)thiazol-2-yl)-N-(3-(piperidin-1-yl)propyl)thiophene-2-carboxamide]"
6,AKT1,"COc1ccc(OC)c(-c2csc(N(CCCN3CCCC3)C(=O)c3ccccc3)n2)c1 [N-(4-(2,5-dimethoxyphenyl)thiazol-2-yl)-N-(3-(pyrrolidin-1-yl)propyl)benzamide]"
7,AKT1,"COc1ccc(OC)c(-c2csc(N(CCCN3CCCC3)C(=O)c3ccco3)n2)c1 [N-(4-(2,5-dimethoxyphenyl)thiazol-2-yl)-N-(3-(pyrrolidin-1-yl)propyl)furan-2-carboxamide]"
8,AKT1,"COc1ccc(OC)c(-c2csc(N(CCCN3CCCC3)C(=O)c3cccs3)n2)c1 [N-(4-(2,5-dimethoxyphenyl)thiazol-2-yl)-N-(3-(pyrrolidin-1-yl)propyl)thiophene-2-carboxamide]"
9,AKT1,"COc1ccc(OC)c(-c2csc(N(CCCN3CCOCC3)C(=O)c3ccco3)n2)c1 [N-(4-(2,5-dimethoxyphenyl)thiazol-2-yl)-N-(3-morpholinopropyl)furan-2-carboxamide]"
10,AKT1,"COc1ccc(OC)c(-c2csc(N(CCCN3CCOCC3)C(=O)c3cccs3)n2)c1 [N-(4-(2,5-dimethoxyphenyl)thiazol-2-yl)-N-(3-morpholinopropyl)thiophene-2-carboxamide]"
11,AKT1,"COc1ccc(-c2csc(N(CCCN3CCOCC3)C(=O)c3cccs3)n2)c(OC)n1 [N-(4-(2,6-dimethoxypyridin-3-yl)thiazol-2-yl)-N-(3-morpholinopropyl)thiophene-2-carboxamide]"
12,AKT1,NC(=O)CNC(=O)CCCN(C(=O)c1cccs1)c1nc(-c2cc3ccccc3o2)cs1 [N-(4-(2-amino-2-oxoethylamino)-4-oxobutyl)-N-(4-(benzofuran-2-yl)thiazol-2-yl)thiophene-2-carboxamide]
13,AKT1,O=C(c1cccs1)N(CCCN1CCOCC1)c1nc(-c2ccccc2Cl)cs1 [N-(4-(2-chlorophenyl)thiazol-2-yl)-N-(3-morpholinopropyl)thiophene-2-carboxamide]
14,AKT1,O=C(c1cccs1)N(CCCN1CCOCC1)c1nc(-c2ccccc2F)cs1 [N-(4-(2-fluorophenyl)thiazol-2-yl)-N-(3-morpholinopropyl)thiophene-2-carboxamide]
15,AKT1,COc1ccccc1-c1csc(N(CCCN2CCOCC2)C(=O)c2cccs2)n1 [N-(4-(2-methoxyphenyl)thiazol-2-yl)-N-(3-morpholinopropyl)thiophene-2-carboxamide]
16,AKT1,"O=C(c1cccs1)N(CCCN1CCOCC1)c1nc(-c2ccc(Cl)c(Cl)c2)cs1 [N-(4-(3,4-dichlorophenyl)thiazol-2-yl)-N-(3-morpholinopropyl)thiophene-2-carboxamide]"
17,AKT1,"O=C(c1cccs1)N(CCCN1CCOCC1)c1nc(-c2ccc(F)c(F)c2)cs1 [N-(4-(3,4-difluorophenyl)thiazol-2-yl)-N-(3-morpholinopropyl)thiophene-2-carboxamide]"
